{"source": "patent US12324795B2", "about": "“Autophagy activating agent” (WAKUNAGA PHARMACEUTICAL CO., LTD., priority 2018, dated 2025)", "type_in_all_cases": "cell-based", "key": {"[1]": {"test_system": "Atg7", "experiment": "Western blotting of Atg7 expression (autophagy activation) in okadaic acid-treated human neuroblasts", "settings": "SH-SY5Y cells", "experimental": "(§1) Human neuroblastoma cell line SH-SY5Y cells were cultured in a Dulbecco's modified Eagle medium supplemented with 10% fetal bovine serum, and antibiotic penicillin-streptomycin solution, and the cultured cells were used as cells for evaluation test.\nOkadaic acid (at a concentration of 100 nM) and S1PC (at concentrations of 0.03, 0.1, and 0.3 mM) were added to the human neuroblasts for evaluation test prepared in (2) above, and the cells were cultured for 6 hours. After culturing, the cultured cells were washed with a phosphate buffer, and then lysed with RIPA cell lysis buffer (manufactured by Millipore Corporation) diluted 10-fold with purified water containing a protease/phosphatase cocktail inhibitor (manufactured by Thermo Fisher Scientific K.K.). After that, centrifugation was conducted (at 10000 rpm, for 10 minutes, at 4° C.), and the supernatant was used as a cell extract. This cell extract was used to conduct analysis by western blotting in accordance with a usual method. […]\n10 nM okadaic acid, 0.3 mM S1PC, and 10 mM autophagy inhibitor (3-methyladenine) were added to the human neuroblasts for evaluation test prepared in (2) above, and the cells were cultured for 24 hours. A cell extract was prepared in the same manner as in (a) above, and analyzed by western blotting in accordance with a usual method. […]"}, "[2]": {"test_system": "tau protein", "experiment": "Western blotting of tau protein (tau protein-removing effect) in okadaic acid-treated human neuroblasts", "settings": "SH-SY5Y cells", "experimental": "as §1\nOkadaic acid (at a concentration of 100 nM) and S1PC (at concentrations of 0.03, 0.1, and 0.3 mM) were added to the human neuroblasts for evaluation test prepared in (2) above, and the cells were cultured for 6 hours. After culturing, the cultured cells were washed with a phosphate buffer, and then lysed with RIPA cell lysis buffer (manufactured by Millipore Corporation) diluted 10-fold with purified water containing a protease/phosphatase cocktail inhibitor (manufactured by Thermo Fisher Scientific K.K.). After that, centrifugation was conducted (at 10000 rpm, for 10 minutes, at 4° C.), and the supernatant was used as a cell extract. This cell extract was used to conduct analysis by western blotting in accordance with a usual method. An anti-Atg7 antibody (manufactured by Cell Signaling Technology, Inc.), an anti-4T-tau antibody (manufactured by Wako Pure Chemical Industries, Ltd.), and an anti-β-actin antibody (manufactured by Wako Pure Chemical Industries, Ltd.) were used as antibodies.\n10 nM okadaic acid, 0.3 mM S1PC, and 10 mM autophagy inhibitor (3-methyladenine) were added to the human neuroblasts for evaluation test prepared in (2) above, and the cells were cultured for 24 hours. A cell extract was prepared in the same manner as in (a) above, and analyzed by western blotting in accordance with a usual method. An anti-Atg7 antibody (manufactured by Cell Signaling Technology, Inc.), an anti-4T-tau antibody (manufactured by Wako Pure Chemical Industries, Ltd.), and an anti-β-actin antibody (manufactured by Wako Pure Chemical Industries, Ltd.) were used as antibodies.\n50 nM okadaic acid and 0.3 mM S1PC or SAC were added to the human neuroblasts for evaluation test prepared in (2) above, and the cells were cultured for 6 hours. A cell extract was prepared in the same manner as in (a) above, and analyzed by western blotting in accordance with a usual method. An anti-4T-tau antibody (manufactured by Wako Pure Chemical Industries, Ltd.) and an anti-β-actin antibody (manufactured by Wako Pure Chemical Industries, Ltd.) were used as antibodies."}, "[3]": {"test_system": "α-synuclein protein", "experiment": "Western blotting of α-synuclein protein (α-synuclein protein-removing effect) in rotenone-treated human neuroblasts", "settings": "SH-SY5Y cells, 3 hours", "experimental": "as §1\n(§2) 10 μM rotenone, 0.3 mM S1PC, and 1 mM autophagy inhibitor (3-methyladenine) were added to the human neuroblasts for evaluation test prepared in (2) above, and the cells were cultured for 3 hours. A cell extract was prepared in the same manner as in (a) above, and analyzed by western blotting in accordance with a usual method. An anti-α-synuclein antibody, an anti-LC3B antibody (manufactured by Cell Signaling Technology, Inc.), and an anti-β-actin antibody (manufactured by MEDICAL & BIOLOGICAL LABORATORIES CO., LTD.) were used as antibodies.\nas §2, with “500 nM” for “10 μM”, “rotenone, and” for “rotenone,”, “S1PC or SAC” for “S1PC, and 1 mM autophagy inhibitor (3-methyladenine)”, “(2),” for “(2) above,”, “used. […] Therefore, S1PC is considered to be useful for Parkinson's disease, for example, accompanied by α-synuclein protein accumulation.” for “used as antibodies.”"}, "[4]": {"test_system": "caspase-3", "experiment": "Western blotting of caspase-3 activation (apoptosis inhibitory effect) in okadaic acid-treated human neuroblasts", "settings": "SH-SY5Y cells, 100 nM okadaic acid, 0.3 mM S1PC, 6 hours, FIG. 3", "experimental": "as §1\n100 nM okadaic acid and 0.3 mM S1PC were added to the human neuroblasts for evaluation test prepared in (2) above, and the cells were cultured for 6 hours. A cell extract was prepared in the same manner as in (a) above, and analyzed by western blotting in accordance with a usual method. An anti-caspase-3 antibody (manufactured by Cell Signaling Technology, Inc.) and an anti-β-actin antibody (manufactured by Wako Pure Chemical Industries, Ltd.) were used as antibodies."}, "[5]": {"test_system": "LC3B-II", "experiment": "Western blotting of LC3B-II expression in rotenone-treated human neuroblasts", "settings": "SH-SY5Y cells, 10 μM rotenone, 0.3 mM S1PC, 1 mM 3-methyladenine, 3 hours, FIG. 5", "experimental": "as §1, §2"}, "[6]": {"settings": "10 nM okadaic acid, 0.3 mM S1PC, 10 mM 3-methyladenine, 24 hours, FIG. 2"}, "[7]": {"settings": "okadaic acid 100 nM, S1PC 0.03, 0.1 and 0.3 mM, 6 hours, FIG. 1"}}}
{"smiles": "CC=CSCC(N)C(=O)O", "note": "(centres unmarked) [S1PC, S-1-propenylcysteine]", "values": [{"measurement": "Atg7 expression-increasing effect with autophagy inhibitor", "setting": "[1]; [6]", "value": "suppressed by adding the autophagy inhibitor"}, {"measurement": "Atg7 expression", "setting": "[1]; [7]", "value": "increased"}, {"measurement": "tau protein-removing effect with autophagy inhibitor", "setting": "[2]; [6]", "value": "suppressed by adding the autophagy inhibitor"}, {"measurement": "tau protein-removing effect compared with SAC", "setting": "[2]; 50 nM okadaic acid, 0.3 mM S1PC or SAC, 6 hours, FIG. 4", "value": "superior to SAC"}, {"measurement": "tau protein", "setting": "[2]; 50 nM okadaic acid, 0.3 mM, 6 hours, FIG. 4", "value": "decreased"}, {"measurement": "removal of tau proteins", "setting": "[2]; [7]", "value": "promoted removal"}, {"measurement": "α-synuclein protein-removing effect compared with SAC", "setting": "[3]; 500 nM rotenone, 0.3 mM S1PC or SAC, FIG. 6", "value": "superior to SAC"}, {"measurement": "α-synuclein protein", "setting": "[3]; 500 nM rotenone, 0.3 mM, FIG. 6", "value": "decreased"}, {"measurement": "α-synuclein protein-removing effect with autophagy inhibitor", "setting": "[3]; 10 μM rotenone, 0.3 mM S1PC, 1 mM 3-methyladenine, FIG. 5", "value": "suppressed by adding the autophagy inhibitor"}, {"measurement": "activation of caspase-3", "setting": "[4]", "value": "suppressed"}, {"measurement": "LC3B-II expression-increasing effect with autophagy inhibitor", "setting": "[5]", "value": "suppressed by adding the autophagy inhibitor"}]}
